Assay results reported in patent US20250042922A1, “KRAS MODULATING COMPOUNDS” (priority 2023, published 2025).

Tests used:
[1] = system: cellular pERK in Kuramochi (WT KRAS) cells; test: Cell based pERK assay, Kuramochi; conditions: Kuramochi (WT KRAS), 2 hours incubation, HTRF phospho-ERK1/2; read-out: Kuramochi pERK EC50
Experimental: (§1) Compounds were tested in a 384-well assay format for their ability to inhibit cellular pERK in Kuramochi (WT KRAS), MIA-PaCa-2 (KRAS-G12C), ASPC-1 (KRAS G12D), and NCI-H441 (KRAS-G12V) cell-lines. Compounds were serially diluted (1:3) in DMSO. On day −1, 80 μL of cells were plated per well in the 384 well tissue-culture plates (Greiner: Cat #781080) to seed 5000 cells per wells of AsPC-1 or 7500 cells of MIA-PaCa-2, NCI-H441, and Kuramochi cell lines in RPMI (Corning: Cat #10-040-CM) with 10% fetal bovine serum (FBS) (HyClone: Cat #SH30071-03) and 1× penicillin-streptomycin-glutamate (PSG) (Corning: Cat #30-009-CI) for […] and Kuramochi cell lines and DMEM (Corning: Cat #15-018-CM) with 10% FBS and 1×PSG for MIA-PaCa-2 cell line. The plates were then incubated overnight at 37° C. and 5% CO2. On day 0, 400 nL of compound/well was added into the cell plates and mixed 5 times by pipetting using a Beckmann Biomek FX. The cell plates were then incubated for 2 hours at 37° C. and 5% CO2. HTRF Advanced Phospho-ERK1/2 (THR202/TYR204) Detection Kits (PerkinElmer: Cat #64AERPEG) were used to prepare the lysis and detection solution according to manufacturer protocol. Following the 2 hour incubation, 70 μL of medium was aspirated from the plates and 10 uL of lysis and detection solution was added to the plates using a Biotek EL406 washer and dispenser. Plates were sealed and stored overnight at room temperature. HTRF ratio (665 nm/615 nm) was read by Envision multimode reader (PerkinElmer) the next day. The TR-FRET ratios were normalized to a positive (saturating concentration of known inhibitor) and negative (DMSO) control and plotted against the log of compound concentration.

[2] = system: cellular pERK in MIA-PaCa-2 (KRAS-G12C) cells; test: Cell based pERK assay, MIA-PaCa-2; conditions: Homo sapiens; MIA-PaCa-2 (KRAS-G12C), 2 hours incubation, HTRF phospho-ERK1/2; read-out: MIAPaCa2 pERK EC50
Experimental: as §1

[3] = system: cellular pERK in NCI-H441 (KRAS-G12V) cells; test: Cell based pERK assay, NCI-H441; conditions: Homo sapiens; NCI-H441 (KRAS-G12V), 2 hours incubation, HTRF phospho-ERK1/2; read-out: H441 PERK EC50
Experimental: as §1

[4] = system: cellular pERK in ASPC-1 (KRAS G12D) cells; test: Cell based pERK assay, ASPC-1; conditions: Homo sapiens, ASPC1; ASPC-1 (KRAS G12D), 2 hours incubation, HTRF phospho-ERK1/2; read-out: AsPC1 pERK EC50
Experimental: as §1

Structure (SMILES)	EC50 [1] [nM]	EC50 [2] [nM]	EC50 [3] [nM]	EC50 [4] [nM]
C#Cc1c(F)ccc2cc(O)cc(-c3nc4c5c(nc(OC[C@@]67CCCN6C[C@H](F)C7)nc5c3F)N3C[C@@]5(F)CC[C@](F)(N5)[C@H]3CCC4)c12 [Example 4-1, 5-ethynyl-6-fluoro-4-((6aR,7R,10S)-1,7,10-trifluoro-13-(((2R,7aS)-2-fluorotetrahydro-1H-pyrrolizin-7a(5H)-yl)methoxy)-5,6,6a,7,8,9,10,11-octahydro-4H-3,11a,12,14,15-pentaaza-7,10-methanocyclohepta[4,5]cycloocta[1,2,3-de]naphthalen-2-yl)naphthalen-2-ol]	1.4	0.49	0.17	1.34
C#Cc1c(F)ccc2cc(N)cc(-c3nc4c5c(nc(OCC67CCCN6CCC7)nc5c3F)N3C[C@@]5(F)CC[C@](F)(N5)[C@H]3CCC4)c12 [Example 4-6, 5-ethynyl-6-fluoro-4-((6aR,7R,10S)-1,7,10-trifluoro-13-((tetrahydro-1H-pyrrolizin-7a(5H)-yl)methoxy)-5,6,6a,7,8,9,10,11-octahydro-4H-3,11a,12,14,15-pentaaza-7,10-methanocyclohepta[4,5]cycloocta[1,2,3-de]naphthalen-2-yl)naphthalen-2-amine]	1.98	1.35	6.45	30.9
C#Cc1c(F)ccc2cc(O)cc(-c3nc4c5c(nc(OC[C@@]67CCCN6C[C@H](F)C7)nc5c3F)N3C[C@@]5(F)CC[C@H](N5)[C@H]3C=C4C)c12 [Example 4-15, 4-((5aR,6S,9S)-1,9-difluoro-12-(((2R,7aS)-2-fluorotetrahydro-1H-pyrrolizin-7a(5H)-yl)methoxy)-4-methyl-5a,6,7,8,9,10-hexahydro-3,10a,11,13,14-pentaaza-6,9-methanonaphtho[1,8-ab]heptalen-2-yl)-5-ethynyl-6-fluoronaphthalen-2-ol]	4.42	4.05	21.8	98.3
C#Cc1c(F)ccc2cc(N)cc(-c3nc4c5c(nc(OC[C@@]67CCCN6C[C@H](F)C7)nc5c3F)N3C[C@@]5(F)CC[C@](F)(N5)[C@@H]3CC4)c12 [Example 4-19, 5-ethynyl-6-fluoro-4-((5aS,6R,9S)-1,6,9-trifluoro-12-(((2R,7aS)-2-fluorotetrahydro-1H-pyrrolizin-7a(5H)-yl)methoxy)-4,5,5a,6,7,8,9,10-octahydro-3,10a,11,13,14-pentaaza-6,9-methanonaphtho[1,8-ab]heptalen-2-yl)naphthalen-2-amine]	0.92	0.235	1.08	5.17
C#Cc1c(F)ccc2cc(N)cc(-c3nc4c5c(nc(OC[C@@]67CCCN6CC(=C)C7)nc5c3F)N3C[C@@]5(F)CC[C@](F)(N5)[C@H]3CCC4)c12 [Example 4-38, 5-ethynyl-6-fluoro-4-((6aR,7R,10S)-1,7,10-trifluoro-13-(((S)-2-methylenetetrahydro-1H-pyrrolizin-7a(5H)-yl)methoxy)-5,6,6a,7,8,9,10,11-octahydro-4H-3,11a,12,14,15-pentaaza-7,10-methanocyclohepta[4,5]cycloocta[1,2,3-de]naphthalen-2-yl)naphthalen-2-amine]	2.69	0.134	1.01	2.2
C#Cc1c(F)ccc2cc(O)cc(-c3nc4c5c(nc(OC[C@@]67CCCN6C[C@H](F)C7)nc5c3F)N3C[C@@]5(F)CC[C@](F)(N5)[C@H]3CC4)c12 [Example 3-1, 5-ethynyl-6-fluoro-4-((5aR,6R,9S)-1,6,9-trifluoro-12-(((2R,7aS)-2-fluorotetrahydro-1H-pyrrolizin-7a(5H)-yl)methoxy)-4,5,5a,6,7,8,9,10-octahydro-3,10a,11,13,14-pentaaza-6,9-methanonaphtho[1,8-ab]heptalen-2-yl)naphthalen-2-ol]	1.13	0.89	1.25	3.27
CCc1c(F)ccc2cc(O)cc(-c3nc4c5c(nc(OC[C@@]67CCCN6C[C@H](F)C7)nc5c3F)N3C[C@@]5(F)CC[C@H](N5)[C@H]3CC4)c12 [Example 2-1, 4-((5aR,6S,9S)-1,9-difluoro-12-(((2R,7aS)-2-fluorotetrahydro-1H-pyrrolizin-7a(5H)-yl)methoxy)-4,5,5a,6,7,8,9,10-octahydro-3,10a,11,13,14-pentaaza-6,9-methanonaphtho[1,8-ab]heptalen-2-yl)-5-ethyl-6-fluoronaphthalen-2-ol]	1.41	3.01	4.44	55.5
C#Cc1c(F)ccc2cc(O)cc(-c3nc4c5c(nc(OC[C@@]67CCCN6C[C@H](F)C7)nc5c3F)N3C[C@@]5(F)CC[C@](F)(N5)[C@H]3CO4)c12 [Example 4-16, 5-ethynyl-6-fluoro-4-((5aR,6R,9S)-1,6,9-trifluoro-12-(((2R,7aS)-2-fluorotetrahydro-1H-pyrrolizin-7a(5H)-yl)methoxy)-5a,6,7,8,9,10-hexahydro-5H-4-oxa-3,10a,11,13,14-pentaaza-6,9-methanonaphtho[1,8-ab]heptalen-2-yl)naphthalen-2-ol]	147	157	> 770	> 1000
C#Cc1c(F)c(F)cc2cc(N)cc(-c3nc4c5c(nc(OCC67CCCN6CCC7)nc5c3F)N3C[C@@]5(F)CC[C@](F)(N5)[C@@H]3CC4)c12 [Example 4-35, 5-ethynyl-6,7-difluoro-4-((5aS,6R,9S)-1,6,9-trifluoro-12-((tetrahydro-1H-pyrrolizin-7a(5H)-yl)methoxy)-4,5,5a,6,7,8,9,10-octahydro-3,10a,11,13,14-pentaaza-6,9-methanonaphtho[1,8-ab]heptalen-2-yl)naphthalen-2-amine]	3.69	0.787	5.32	33.7
CCc1c(F)ccc2cc(O)cc(-c3nc4c5c(nc(OCC67CCCN6CCC7)nc5c3F)N3C[C@@]5(F)CC[C@](F)(N5)[C@H]3CCC4)c12 [Example 6-1, 5-ethyl-6-fluoro-4-((6aR,7R,10S)-1,7,10-trifluoro-13-((tetrahydro-1H-pyrrolizin-7a(5H)-yl)methoxy)-5,6,6a,7,8,9,10,11-octahydro-4H-3,11a,12,14,15-pentaaza-7,10-methanocyclohepta[4,5]cycloocta[1,2,3-de]naphthalen-2-yl)naphthalen-2-ol]	3.55	1.52	19.4	31.8
C#Cc1c(F)ccc2cc(N)cc(-c3nc4c5c(nc(OC[C@@]67CCCN6CC(=C)C7)nc5c3F)N3C[C@@]5(F)CC[C@](F)(N5)[C@@H]3[C@@H](C)C4)c12 [Example 4-40, 5-ethynyl-6-fluoro-4-((5S,5aS,6R,9S)-1,6,9-trifluoro-5-methyl-12-(((S)-2-methylenetetrahydro-1H-pyrrolizin-7a(5H)-yl)methoxy)-4,5,5a,6,7,8,9,10-octahydro-3,10a,11,13,14-pentaaza-6,9-methanonaphtho[1,8-ab]heptalen-2-yl)naphthalen-2-amine]	1.65	0.067	0.38	0.71
Nc1cc(-c2nc3c4c(nc(OCC56CCCN5CCC6)nc4c2F)N2C[C@@]4(F)CC[C@](F)(N4)[C@H]2CCC3)c2c(F)c(F)ccc2c1 [Example 5-4, 5,6-difluoro-4-[(4S,7R,8R)-4,7,15-trifluoro-18-(1,2,3,5,6,7-hexahydropyrrolizin-8-ylmethoxy)-2,13,17,19,21-pentazapentacyclo[10.7.1.14,7.02,8.016,20]henicosa-1(19),12(20),13,15,17-pentaen-14-yl]naphthalen-2-amine]	5.01	28.7	104	416
C#Cc1c(F)ccc2cc(N)cc(-c3nc4c5c(nc(OCC67CCCN6CCC7)nc5c3F)N3C[C@@]5(F)CC[C@](F)(N5)[C@@H]3CC4)c12 [Example 4-34, 5-ethynyl-6-fluoro-4-((5aS,6R,9S)-1,6,9-trifluoro-12-((tetrahydro-1H-pyrrolizin-7a(5H)-yl)methoxy)-4,5,5a,6,7,8,9,10-octahydro-3,10a,11,13,14-pentaaza-6,9-methanonaphtho[1,8-ab]heptalen-2-yl)naphthalen-2-amine]	3.34	0.511	2.75	20.9
